Assay results as given in patent US20090042861A1, “Prophylactic or Therapeutic Agent for Depression or Anxiety Disorder” (Takeda Pharmaceutical Company Limited, priority 2005, published 2009).

Legend:
male Wister (Jcl) rats [1] = test: Elevated plus-maze test; format: in vivo, rat; details: Example 3
Procedure: Animal: male Wister (Jcl) rats were purchased at the age of 5 weeks old, and used at the age of 6 weeks old.
An elevated plus-maze test equipment having arm 50 cm long by 10 cm wide was used. Its height was 40 cm, and the height of closed arm was adjusted to the same. Black was used as the color of wall. Lighting in experiment room was set to 5 lux of illuminance on the equipment.
The animals were handled from 2 days before test. Test was carried out between 8 a.m. and […]., and the animals were naturalized in the conduct test room at a measurement illuminance from 1 hour before the start of test.
The drug used (compound A, melatonin) was suspended in 0.5% methylcellulose physiological saline to adjust dosage to 2 mL/kg, and administered intraperitoneally. To the vehicle administration group, a 0.5% methylcellulose physiological saline was administered in the same way.
In the elevated plus-maze test, the animal was put in the central region of maze with the head to the direction of closed arm, and the conduct of 5 minutes duration was observed. Measurement items were number of entries into open arms and time spent in open arms which were used as an indicator of anxiety conducts, and it was considered that the more the number of entries into open arms, time spent in open arms and dipping frequency are, the less the anxiety conducts are. Further, the number of entries into closed arms was counted, which was used as an indicator of amount of motor-activity. […] Test was performed with n=10 for each group. Trial was carried out over 2 days, and 2 days' data were summed up as one test.
Significant difference test was performed with using Williams' test for vehicle administration group and multigroup drug administration groups.

male Wister (Jcl) rats [2] = test: Water-drinking conflicting test; format: in vivo, rat; details: Example 1
Procedure: Animal: male Wister (Jcl) rats were purchased at the age of 8 weeks old, and used at the age of 9 weeks old.
First, rats were put in a separate cage, and abstained from water for two days under light-dark (12-hour cycle) condition. On the day of experiment, rats were habituated to the experiment room for more than 60 minutes, and administered intraperitoneally with 30 mg/kg of compound A, 30 mg/kg of melatonin or vehicle, and then test was carried out 30 minutes after the administration.
The drug used (compound A, melatonin) was suspended in 0.5% methylcellulose physiological saline to adjust dosage to 2 mL/kg, and administered intraperitoneally. To the vehicle administration group, a 0.5% methylcellulose physiological saline was administered in the same way. All administrations and trials were performed between 9:00 and 12:00.
In the present experiment, when the animals pre-raised under a water-deprived condition drink water, they are placed in a conflicting state that they get electroshocked under the following condition.
Test Time: 300 seconds, Shock Condition: in case either 20 times of lick frequency or 2 seconds of lick time is satisfied
Shock ON Time: 2 seconds, Time-out: 180 seconds, Stimulus Intensity: 0.6 mA
Animal: male Wister (Jcl) rats were purchased at the age of 8 weeks old, and used at the age of 9 weeks old. Drug Administration Group and Test Method: Test was carried out for the following conditions. (each group n=10)
Compound A and Diazepam were suspended in 0.5% methylcellulose solution to adjust dosage to 2 mL/kg, and administered intraperitoneally. To control group, a 0.5% methylcellulose physiological saline for injection was administered as vehicle. As a drug solution to be combined, a drug solution having twice concentration of final concentration was prepared, and adjusted to final concentration by mixing equal amounts. A dose of 2 mL/kg was administered intraperitoneally, respectively. All administrations and trials were performed between 9:00 and 13:00.
First, rats were put in a separate cage, and abstained from water for two days under light-dark (12-hour cycle) condition. On the day of experiment, rats were habituated to the experiment room for more than 60 minutes, and each drug was administered intraperitoneally, and then test was carried out 30 minutes after the administration.
Significant difference test was performed with using Williams' test for vehicle administration group and multigroup drug administration groups. t-Test was used for vehicle administration group and single drug administration groups. A dose of compound A (0.3, 10 and 30 mg/kg) and 0.3 mg/kg of Diazepam were administered in combination.

male ICR (Jcl) mice = test: Mouse tail suspension test; format: in vivo; details: for moving power at the trial of tail suspension test: FIGS. 9, 10
Procedure: Action on immobility and moving power in a single application test of Paroxetine and compound A Used Animals: male ICR (Jcl) mice of 6 weeks old were used. Drug Administration Group and Test Method: Test was carried out for the following conditions. (each group n=12)
Paroxetine was dissolved in 0.5% methylcellulose physiological saline, and compound A was suspended in 0.5% methylcellulose aqueous solution for injection. To control group, a 0.5% methylcellulose physiological saline for injection was administered as vehicle. A dose of 20 ml/kg was administered intraperitoneally, respectively. Administration was carried out 30 minutes before trial of tail suspension.
Animals were put in a 5-row-cage with 8 each cage, and fully habituated. Drug administrations and trials were performed between 13:00 and 17:00.
An automated measuring equipment made according to the method of Steru (Psycopharmacology 85, 367-370, 1985) was used for measurement. The mouse was suspended by the tail in a soundproof box (16 cm×38 cm×33 cm) divided individually, and then the immobility rate of 10 minutes duration was measured. Tail suspension was carried out by fixing a 5 cm wire to a sensor and suspending the mouse with fixing its tail with a tape at the end of the wire. By weighing every 10 msec, the movement of the mouse was calculated through A/D converter as moving power for one second. The moving power of less than 1% of body weight of mouse was considered to be in the immobile state, and the immobility rate for every one minute was measured. Test was carried out for 10 minutes, and all the experiments were controlled with personal computer (NEC-9801).
Action on immobility and moving power in a combined application test of Paroxetine and compound A Used Animals: male ICR (Jcl) mice of 6 weeks old were used. Drug Administration Group and Test Method: Test was carried out for the following conditions. (each group n=15-16)
Paroxetine was dissolved in 0.5% methylcellulose physiological saline, and compound A was suspended in 0.5% methylcellulose aqueous solution for injection. To control group, a 0.5% methylcellulose physiological saline for injection was administered as vehicle. As a drug solution to be combined, a drug solution having twice concentration of final concentration was prepared, and adjusted to final concentration by mixing equal amounts. A dose of 20 ml/kg was administered intraperitoneally, respectively. Administration was carried out 30 minutes before trial of tail suspension.

CCC(=O)NCC[C@@H]1CCc2ccc3c(c21)CCO3 [Compound A, (S)-N-[2-(1,6,7,8-Tetrahydro-2H-indeno[5,4-b]furan-8-yl)ethyl]propionamide]
time spent in open arms (male Wister (Jcl) rats [1]; intraperitoneal, 5 minutes observation, vs vehicle group, FIG. 5): an increase
number of entries into open arms (male Wister (Jcl) rats [1]; intraperitoneal, 5 minutes observation, vs vehicle group, FIG. 6): an increase
lick frequency (male Wister (Jcl) rats [2]; 30 mg/kg intraperitoneally, test 30 minutes after administration, vs vehicle group, Williams' test, FIG. 1): significant increasing effect
shock frequency (male Wister (Jcl) rats [2]; 30 mg/kg intraperitoneally, test 30 minutes after administration, vs vehicle group, Williams' test, FIG. 2): significant increasing effect
immobility (male ICR (Jcl) mice; Example 4, single application, 3, 10 and 30 mg/kg (i.p.), 30 minutes before trial, FIGS. 7, 8): didn't have an affect
moving power at the trial of tail suspension test (male ICR (Jcl) mice; Example 4, single application, 3, 10 and 30 mg/kg (i.p.)): didn't have an affect
effect on the antidepressant action of Paroxetine (male ICR (Jcl) mice; Example 5, Compound A 1, 3 and 10 mg/kg with Paroxetine 1 mg/kg (i.p.)): enhances the antidepressant action of Paroxetine

CN1C(=O)CN=C(c2ccccc2)c2cc(Cl)ccc21 [Diazepam]
effect in this system (control drug) (male Wister (Jcl) rats [1]; control drug, dose not given): exhibits an effect
effect in this system (control drug) (male Wister (Jcl) rats [2]; control drug, dose not given): exhibits an effect

Fc1ccc([C@@H]2CCNC[C@H]2COc2ccc3c(c2)OCO3)cc1 [Paroxetine]
moving power at the trial of tail suspension test (male ICR (Jcl) mice; Example 4, single application, 0.3, 1, 3 and 10 mg/kg (i.p.), vs vehicle group): increase a little

COc1ccc2[nH]cc(CCNC(C)=O)c2c1 [melatonin]
action in elevated plus-maze (open arm entries and time) (male Wister (Jcl) rats [1]; intraperitoneal, vs vehicle group, Williams' test): a significant action was not observed
anti-conflicting effect (male Wister (Jcl) rats [2]; 30 mg/kg intraperitoneally, test 30 minutes after administration, vs vehicle group, Williams' test): a little anti-conflicting effect was observed, but it was not a significant effect
